These results are taken from the supplement of paper PMC10307832.

Test in all cases: relative viability (nuclei count vs DMSO), 5 days (fraction); higher = more cells survive
Compound in experiment [1]: CS(=O)(=O)N1CCN(Cc2cc3nc(-c4cccc5[nH]ncc45)nc(N4CCOCC4)c3s2)CC1 [Pictilisib] + COc1cccc2cc(-c3nc([C@H]4CC[C@H](C(=O)O)CC4)n4ncnc(N)c34)[nH]c12 [OSI-027] (partner 0.5 µM)
The gist of the method: (§1)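 Each reported value is a median over duplicate plates. It expresses relative viability: treated-well nuclei count divided by vehicle-well nuclei count. Lung cancer cell lines in 1536-well plates were dosed by pin tool a day after seeding, alone with one drug or with a fixed anchor-drug dose plus five library-drug doses (not always all listed) in √10 steps, and nuclei were counted after 5 days.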

Compound in experiment [2]: NC1(c2ccc(-c3nc4ccn5c(=O)[nH]nc5c4cc3-c3ccccc3)cc2)CCC1 [MK-2206] + C[C@]1(O)C[C@@H](c2nc(-c3ccc4ccc(-c5ccccc5)nc4c3)c3c(N)nccn32)C1 [Linsitinib] (partner 1 µM)
The gist of the method:
as §1

Compound in experiment [3]: CS(=O)(=O)N1CCN(Cc2cc3nc(-c4cccc5[nH]ncc45)nc(N4CCOCC4)c3s2)CC1 [Pictilisib] + Cc1cc(Nc2cc(N3CCN(C)CC3)nc(Sc3ccc(NC(=O)C4CC4)cc3)n2)n[nH]1 [Tozasertib] (partner 0.1 µM)
The gist of the method:
as §1

Compound in experiment [4]: NC1(c2ccc(-c3nc4ccn5c(=O)[nH]nc5c4cc3-c3ccccc3)cc2)CCC1 [MK-2206] + CS(=O)(=O)N1CCN(Cc2cc3nc(-c4cccc5[nH]ncc45)nc(N4CCOCC4)c3s2)CC1 [Pictilisib] (partner 1 µM)
The method, boiled down: as §1

Compound in experiment [5]: CS(=O)(=O)N1CCN(Cc2cc3nc(-c4cccc5[nH]ncc45)nc(N4CCOCC4)c3s2)CC1 [Pictilisib] + CCNC(=O)c1noc(-c2cc(C(C)C)c(O)cc2O)c1-c1ccc(CN2CCOCC2)cc1 [Luminespib] (partner 0.01 µM)
The method, boiled down: as §1

As to UMC-11, the relative viability was determined as 0.538 in experiment [1] (first compound 0.02 µM); 0.526 in experiment [1] (first compound 0.06325 µM); 0.48 in experiment [1] (first compound 0.6325 µM); 0.383 in experiment [1] (first compound 2 µM); 1.1 in experiment [2] (first compound 0.01 µM); 1.02 in experiment [2] (first compound 0.03162 µM). The relative viability in experiment [2] (first compound 0.3162 µM) amounted to 1.01; in experiment [2] (first compound 1 µM) it was 1.01; in experiment [3] (first compound 0.02 µM) it was 0.202; in experiment [3] (first compound 0.06325 µM) it was 0.192; in experiment [3] (first compound 0.6325 µM), 0.2; in experiment [3] (first compound 2 µM), 0.216. Moreover, the relative viability in experiment [4] (first compound 0.01 µM) is 0.762; in experiment [4] (first compound 0.03162 µM), 0.821; in experiment [4] (first compound 0.3162 µM), 0.837; in experiment [4] (first compound 1 µM), 0.616; in experiment [5] (first compound 0.02 µM) it was 1.02; in experiment [5] (first compound 0.06325 µM) it was 1.15. Moreover, the relative viability in experiment [5] (first compound 0.6325 µM) was found to be 1.09; in experiment [5] (first compound 2 µM) it was 0.988.
